Test results as given in US20250257034A1, “INDOLE DERIVATIVES AS SEROTONERGIC AGENTS USEFUL FOR THE TREATMENT OF DISORDERS RELATED THERETO” (priority 2023, published 2025).
Like-named read-outs stand apart in the source and are kept apart here.

Legend:
human 5-HT1A receptor = molecular target: T1, human 5-HT1A receptor (Homo sapiens, UniProt P08908); assay: Human 5-HT1A radioligand binding assay ([3H]-8-Hydroxy-DPAT); parameters: expressed in transfected cells; host or cells: HTR1A&Gα15-CHO
T1 sequence (P08908 1-422): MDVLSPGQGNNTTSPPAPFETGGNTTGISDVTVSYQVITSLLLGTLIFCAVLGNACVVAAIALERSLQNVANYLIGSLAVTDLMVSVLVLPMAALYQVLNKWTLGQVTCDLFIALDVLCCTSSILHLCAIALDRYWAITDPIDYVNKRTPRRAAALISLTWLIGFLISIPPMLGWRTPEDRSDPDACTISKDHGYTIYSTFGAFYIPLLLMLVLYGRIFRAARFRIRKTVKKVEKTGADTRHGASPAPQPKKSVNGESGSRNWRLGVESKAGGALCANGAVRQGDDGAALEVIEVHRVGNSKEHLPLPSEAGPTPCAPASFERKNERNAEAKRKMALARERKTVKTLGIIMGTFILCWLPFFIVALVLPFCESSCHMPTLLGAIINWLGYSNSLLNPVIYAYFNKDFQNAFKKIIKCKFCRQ
Procedure: The objective of this study was to evaluate the binding properties of test compounds on 5-hydroxytryptamine receptor 1A (5-HT1A).
1. The assay buffer was prepared following Table 21 below.
2. 8 doses of reference and test compounds were prepared starting from 10 mM stock solution as required by 5-fold serial dilutions with 100% (v/v) DMSO.
3. UniFilter-96 GF/B plate was pretreated: • i. 50 μl/well of 0.5% (v/v) PEI was added to UniFilter-96 G F/B plates. The plates were sealed and incubated at 4° C. for 3 hrs. • ii. After incubation, the plates were washed 3 times with ice-cold wash buffer (50 mM Tris, pH7.4).
4. Assay plate was prepared: • i. Cell membrane was diluted with assay buffer and 100 μl/well was added to 96 round well plates to reach a concentration of 20 μg/well. • ii. 8 concentrations of reference or test compounds were prepared and 50 μl/well was added to 96 round deep well plates. • iii. [3H]-8-Hydroxy-DPAT was diluted with assay buffer to 2 nM (4×final concentration) and 50 μl/well was added to 96 round well plates.
5. The plate was centrifuged at 1000 rpm for 30 secs and then agitated at 600 rpm, R.T. for 5 min.
6. The plates were sealed, and the plate was incubated at 27° C. for 90 min.
7. The incubation was stopped by vacuum filtration onto GF/B filter plates followed by 4 times washing with ice-cold wash buffer (50 mM Tris, pH7.4).
9. The filter plates were sealed and 40 μl/well of scintillation cocktail was added.
10. The plate was read by using a Microbeta^2 microplate counter.
1. For reference and test compounds, the results were expressed as % Inhibition, using the normalization equation: N=100-100x(U-C2)/(C1-C2), where U is the unknown value, C1 is the average of high controls, and C2 is the average of low controls.
2. The IC50 was determined by fitting percentage of inhibition as a […] of compound concentrations with Hill equation using XLfit.
The objective of this study was to evaluate the binding properties of test compounds on 5-hydroxytryptamine receptor 1A (5-HTA).
1. The assay buffer was prepared following Table 50 below.
3. UniFilter-96 G FIB plate was pretreated: • i. 50 μl/well of 0.5% (v/v) PEI was added to UniFilter-96 G FIB plates. The plates were sealed and incubated at 4° C. for 3 hrs. • ii. After incubation, the plates were washed 3 times with ice-cold wash buffer (50 mM Tris, pH7.4).
6. The plates were sealed and the plate was incubated at 27° C. for 90 min.

5-HT2B receptor = 5-HT2B receptor (Homo sapiens, UniProt P41595); assay: Human 5-HT2B radioligand binding assay ([3H]-LSD); parameters: host or cells: cell membrane, dosed as 1 unit/well
Procedure: The objective of this study was to evaluate the binding properties of test compounds on 5-HT2B.
1) The assay buffer was prepared following Table 25-below.
2) Eight doses of reference and test compounds starting from 10 mM stock solution as requested by 5-fold serial dilutions with 100% (v/v) DMSO.
3) UniFilter-96 GF/B plate was pretreated: • a. 50 μl/well of 0.5% (v/v) PEI to UniFilter-96 G F/B plates. The plates were sealed and incubated at 4° C. for 3 hrs. • b. After incubation, the plates were washed 3 times with ice-cold wash buffer (50 mM Tris, pH7.4).
4) Assay plate preparation: • a. Cell membrane was diluted with assay buffer and 330 μl/well added to 96 round deep well plates to reach a concentration of 1 unit/well. • b. Eight concentrations of reference or test compounds were prepared and 110 μl/well added to 96 round deep well plates. • c. [3H]-LSD was diluted with assay buffer to 5 nM (5×final concentration) and 110 μl/well was added to 96 round deep well plates.
5) The plate was centrifuged at 1000 rpm for 30 secs and then agitate at 600 rpm, R.T. for 5 min.
6) The plates were sealed and incubated at 37° C. for 90 min.
7) The incubation was stopped by vacuum filtration onto GF/B filter plates followed by 4 times washing with ice-cold wash buffer (50 mM Tris, pH7.4).
9) The filter plates were sealed and 40 μl/well of scintillation cocktail was added.
10) The plate was read using a Microbeta2 microplate counter.
(§1) For reference and test compounds, the results are expressed as % Inhibition, using the normalization equation: N=100-100x(U-C2)/(C1-C2), where U is the unknown value, Cl is the average of high controls, and C2 is the average of low controls. The IC50 is determined by fitting percentage of inhibition as a function of compound concentrations with Hill equation using XLfit.
1) The assay buffer was prepared following Table 54 below.
7) The incubation was stopped by vacuum filtration onto G F/B filter plates followed by 4 times washing with ice-cold wash buffer (50 mM Tris, pH7.4).
as §1, with “N=100−100×(U−C2)/(C1−C2),” for “N=100-100x(U-C2)/(C1-C2),”, “C1” for “Cl”

Sequence of 5-HT2B receptor (P41595 whole entry): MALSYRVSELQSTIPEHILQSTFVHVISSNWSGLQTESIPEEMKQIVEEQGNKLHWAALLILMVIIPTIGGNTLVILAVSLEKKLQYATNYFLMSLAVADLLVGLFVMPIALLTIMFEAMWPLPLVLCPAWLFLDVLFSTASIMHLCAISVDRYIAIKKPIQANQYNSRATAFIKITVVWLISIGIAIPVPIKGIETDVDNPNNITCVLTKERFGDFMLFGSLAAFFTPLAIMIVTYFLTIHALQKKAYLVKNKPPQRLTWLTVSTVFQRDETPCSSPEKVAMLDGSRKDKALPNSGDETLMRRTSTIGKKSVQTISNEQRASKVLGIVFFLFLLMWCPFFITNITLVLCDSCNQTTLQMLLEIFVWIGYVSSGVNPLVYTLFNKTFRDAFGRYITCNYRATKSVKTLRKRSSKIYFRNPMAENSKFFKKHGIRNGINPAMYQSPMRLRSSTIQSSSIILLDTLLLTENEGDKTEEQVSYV

| SMILES | IC50 (human 5-HT1A receptor) [nM] | IC50 (5-HT2B receptor) [nM] | Ki (5-HT2B receptor) [nM] | IC50 (human 5-HT1A receptor; [3H]-8-Hydroxy-DPAT displacement (Table 51), read-out: h5-HT1A, IC50) [nM] | IC50 (5-HT2B receptor; [3H]-LSD displacement (Table 55), read-out: 5-HT2B, IC50) [nM] | Ki (5-HT2B receptor; [3H]-LSD displacement (Table 55), read-out: 5-HT2B, Ki) [nM] |
| --- | --- | --- | --- | --- | --- | --- |
| COc1ccc2[nH]cc(CCN3CC[C@@H](OC)C3)c2c1 [(R) I-66, (R)-5-methoxy-3-(2-(3-methoxypyrrolidin-1-yl)ethyl)-1H-indole] | 22 |  |  |  |  |  |
| COc1ccc2[nH]cc(CCN3CC[C@@H](OC(F)F)C3)c2c1 [(R) I-67, (R)-3-(2-(3-(Difluoromethoxy)pyrrolidin-1-yl)ethyl)-5-methoxy-1H-indole] | 22 |  |  |  |  |  |
| COc1ccc2[nH]cc(CCN3CC[C@H](OC(F)F)C3)c2c1 [(S) I-67, (S)-3-(2-(3-(Difluoromethoxy)pyrrolidin-1-yl)ethyl)-5-methoxy-1H-indole] | 5 |  |  |  |  |  |
| [2H]C([2H])([2H])N(CCc1c[nH]c2ccc(SC)cc12)C([2H])([2H])[2H] [Compound I-1, N,N-Bis(methyl-d3)-2-(5-(methylthio)-1H-indol-3-yl)ethan-1-amine] | 3.9 | 74.5 | 38.6 |  |  |  |
| CCN(CC)CCc1c[nH]c2ccc(SC)cc12 [Compound I-12, N,N-Diethyl-2-(5-(methylthio)-1H-indol-3-yl)ethan-1-amine] | 2 | 451 | 233 |  |  |  |
| CCN(C)CCc1c[nH]c2ccc(SC)cc12 [Compound I-13, N-Ethyl-N-methyl-2-(5-(methylthio)-1H-indol-3-yl)ethan-1-amine] | 2 | 64 | 33.1 |  |  |  |
| CSc1ccc2[nH]cc(CCN(C(C)C)C(C)C)c2c1 [Compound I-17, N-Isopropyl-N-(2-(5-(methylthio)-1H-indol-3-yl)ethyl)propan-2-amine] | 46 | 221 | 114 |  |  |  |
| CSc1ccc2[nH]cc(CCN(C)C(C)C)c2c1 [Compound I-19, N-Methyl-N-(2-(5-(methylthio)-1H-indol-3-yl)ethyl)propan-2-amine] | 17 | 276 | 143 |  |  |  |
| COc1ccc2[nH]cc(CCN(C)CCOC(F)F)c2c1 [Compound I-71, 2-(Difluoromethoxy)-N-(2-(5-methoxy-1H-indol-3-yl)ethyl)-N-methylethan-1-amine] |  |  |  | 51 | 171 | 88.6 |
| CN(C)CCc1c[nH]c2ccc(OCCOC(F)F)cc12 [Compound I-128, 2-(5-(2-(Difluoromethoxy)ethoxy)-1H-indol-3-yl)-N,N-dimethylethan-1-amine] | 87 |  |  |  |  |  |
